Measurements as given in patent publication US20110104301A1, “METHODS OF REDUCING PAIN AND INFLAMMATION” (Georgetown University, A Congressionally Chartered …, priority 2008, published 2011).
“Also recorded” adds a separate entry of the source.

Assays:
TRPA1 [1] = target: T1, TRPA1 (Rattus norvegicus, UniProt Q6RI86); test: Whole-cell patch-clamp of TRPA1-expressing HEK293 cells; format: cell-based; settings: for Activation of TRPA1 currents by VGAs: 0.9 mM, voltage-clamped HEK293 cells
T1 construct: expressed in transfected cells; host or cells: HEK 293F
Method: Electrophysiology. […] Whole-cell and single-channel patch-clamp recordings were performed by using an EPC8 amplifier (HEKA Electronics). For whole-cell and excised patch recordings the bath solution contained 140 mMNaCl, 4 mMKCl, 1 mMMgCl2, 1.2 mMCaCl2, 10 mMHepes, 10 mM glucose, pH 7.3. For cell-attached experiments, NaCl was replaced with KCl in the bath solution. […] For neuronal recording NaCl was replaced with K-gluconate (plus 1 mMATP, 0.2 mM GTP). Solutions were applied via a gravity-fed system. […] Voltage-dependent properties were measured as described in Matt and Ahern, J. Physiol. […] The baseline currents under control conditions were subtracted. For cell-attached experiments, peak amplitudes were measured from all-points histograms, and open probability was measured as NPo>750 ms. Defolliculated Xenopus laevis oocytes were injected with ≈10 ng of hTRPA1 (gift of Ardem Patapoutian, The Scripps Research Institute, La Jolla, Calif.).
Volatile General Anesthetics and Chemicals. Saturated stock solutions of volatile GAs were prepared in gas-tight bottles by dissolving excess anesthetic agents in bath solutions overnight. From these stock solutions fresh dilutions were made up every 40-60 min. Concentrations of GAs in the bath solutions were verified by using a modified head-space gas chromatography method. […] Alcohols with <6 carbons were dissolved directly into extracellular solution, and alcohols containing 6 carbons or more were dissolved in DMSO and then diluted into extracellular solutions that were sonicated for 20 min. All other drugs were prepared as stock solutions in DMSO or ethanol and diluted into physiological solution before experiments.

[2] = rat at 37° C.; cited from earlier work
hTRPA1 = target: T2, hTRPA1 (Homo sapiens, UniProt O75762); test: AITC-evoked currents in TRPA1-expressing Xenopus oocytes; format: cell-based; settings: VGAs 0.5-0.65 mM, AITC 10 μM
T2 construct: expressed in transfected cells; host or cells: Xenopus laevis oocytes (injected)
Method: (§1) Electrophysiology. HEK 293F cells were transfected with rat TRPV1, TRPA1, and TRPM8 (gift of David Julius, University of California, San Francisco). Dorsal root ganglia were cultured from adult mice (C57B16/J wild type and TRPV1-null, and mixed B6/129 background TRPA1-null) in Neurobasal +2% B-27 medium (Invitrogen), 0.1% L-glutamine and 1% penicillin/streptomycin. Whole-cell and single-channel patch-clamp recordings were performed by using an EPC8 amplifier (HEKA Electronics). For whole-cell and excised patch recordings the bath solution contained 140 mMNaCl, 4 mMKCl, 1 mMMgCl2, 1.2 mMCaCl2, 10 mMHepes, 10 mM glucose, pH 7.3. For cell-attached experiments, NaCl was replaced with KCl in the bath solution. The pipette solution contained 140 mM NaCl or KCl, 10 mM Hepes, 5 mM EGTA, pH 7.3. For neuronal recording NaCl was replaced with K-gluconate (plus 1 mMATP, 0.2 mM GTP). Solutions were applied via a gravity-fed system. Separate outlets were used to apply capsaicin and AITC solutions to avoid contamination. Voltage-dependent properties were measured as described in Matt and Ahern, J. Physiol. 585:469-482 (2007). Current-voltage measurements comprised a 200-ms ramp from −150 mV to +200 mV. The baseline currents under control conditions were subtracted. For cell-attached experiments, peak amplitudes were measured from all-points histograms, and open probability was measured as NPo>750 ms. Defolliculated Xenopus laevis oocytes were injected with ≈10 ng of hTRPA1 (gift of Ardem Patapoutian, The Scripps Research Institute, La Jolla, Calif.). Oocytes were placed in a Perspex chamber and continuously superfused (5 ml min^−1) with Ca^2+-free solution containing 100 mM NaCl, 2.5 mM KCl, 5 mM Hepes, 1 mM MgC12 and titrated to pH 7.3 with ˜5 mM NaOH.

TRPA1 [3] = target: T1, TRPA1; test: Single-channel recordings of TRPA1 (outside-out / cell-attached patches); format: cell-based; settings: for TRPA1 single-channel conductance in presence of VGA: 0.23 mM isoflurane, 0.9 mM desflurane, reduced from ≈110 pS; for Single TRPA1 channel activity: cell-free patches
Method: as §1

TRPV1 = TRPV1 (Rattus norvegicus, UniProt O35433); test: Voltage-clamp of TRPV1-expressing Xenopus oocytes (capsaicin, protons, heat); format: cell-based; settings: for Temperature threshold of TRPV1 heat activation: control ~46° C.
Method: Oocyte electrophysiology. […] Oocytes were placed in a Perspex chamber and continuously superfused (5 ml min-1) with Ca2+-free solution containing (in mM): 100 NaCl, 2.5 KCl, 5 HEPES, 1 MgCl2 and titrated to pH 7.3 with ˜5 mM NaOH. For solutions <pH 6.0, HEPES was replaced with either 5 mM MES or 5 mM sodium citrate. Oocytes were routinely voltage-clamped at −60 mV at 22-23° C. For heat activation, bath temperature was raised from ˜22-50° C. over ˜100 s using an in-line solution heater (Warner Instruments). The temperature was continuously monitored with a probe placed within 2 mm of the oocyte. The temperature-activation threshold was defined as a 20% increase in current above baseline.
Volatile general anesthetics. Saturated stock solutions of volatile general anesthetics (VGAs) were prepared in gas-tight bottles by dissolving excess anesthetic agents in bath solutions and stirring vigorously overnight. From these stock solutions fresh dilutions were made up every 40-60 minutes. Concentrations of volatile anesthetics in the bath solutions were verified using a modified head-space gas chromatography method. The gas chromatograph (Carlo Erba, Milan, Italy) was equipped with a flame ionization detector (FID) and mass spectrometer. The carrier gas was hydrogen (60 kPa column head pressure) and the fused silica capillary column, coated with polysiloxane SE-30, was 25 m×0.25 mm. Injector temperature was 250° C., FID temperature was 300° C. and the oven was maintained at 90° C. Standards were prepared from a mixture of halothane, isoflurane, and sevoflurane dissolved in acetonitrile with enflurane as an internal standard.

T1 sequence (Q6RI86 whole entry): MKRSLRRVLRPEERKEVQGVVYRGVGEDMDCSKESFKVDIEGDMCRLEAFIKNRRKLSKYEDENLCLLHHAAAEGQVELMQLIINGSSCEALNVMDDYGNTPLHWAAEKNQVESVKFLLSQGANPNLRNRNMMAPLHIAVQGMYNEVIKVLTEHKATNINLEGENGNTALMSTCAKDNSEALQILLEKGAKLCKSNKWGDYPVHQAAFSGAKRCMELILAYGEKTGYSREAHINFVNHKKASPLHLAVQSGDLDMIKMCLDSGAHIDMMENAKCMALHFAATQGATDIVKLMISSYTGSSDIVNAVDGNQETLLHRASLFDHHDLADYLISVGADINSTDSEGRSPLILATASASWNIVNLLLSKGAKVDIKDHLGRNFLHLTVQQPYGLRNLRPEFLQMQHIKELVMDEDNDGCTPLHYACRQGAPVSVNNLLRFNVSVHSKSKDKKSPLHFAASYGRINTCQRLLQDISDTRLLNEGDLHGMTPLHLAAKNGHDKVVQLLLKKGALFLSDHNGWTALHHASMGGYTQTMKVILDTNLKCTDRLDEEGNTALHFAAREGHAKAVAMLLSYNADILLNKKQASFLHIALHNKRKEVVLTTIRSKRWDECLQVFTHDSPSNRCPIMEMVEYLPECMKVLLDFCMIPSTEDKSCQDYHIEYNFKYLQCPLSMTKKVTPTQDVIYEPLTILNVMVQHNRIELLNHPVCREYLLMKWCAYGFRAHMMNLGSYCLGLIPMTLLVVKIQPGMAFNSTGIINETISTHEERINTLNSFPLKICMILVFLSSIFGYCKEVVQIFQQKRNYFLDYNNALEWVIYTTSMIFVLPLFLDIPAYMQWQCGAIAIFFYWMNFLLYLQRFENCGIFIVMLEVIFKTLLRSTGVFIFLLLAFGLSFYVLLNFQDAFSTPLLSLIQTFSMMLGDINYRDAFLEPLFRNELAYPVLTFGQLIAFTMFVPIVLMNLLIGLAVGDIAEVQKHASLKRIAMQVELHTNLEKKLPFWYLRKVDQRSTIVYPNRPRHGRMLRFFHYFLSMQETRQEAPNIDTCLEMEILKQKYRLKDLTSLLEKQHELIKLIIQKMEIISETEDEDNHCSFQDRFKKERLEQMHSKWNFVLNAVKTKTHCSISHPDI
Sequence of TRPV1 (O35433 whole entry, the tested form may be a part): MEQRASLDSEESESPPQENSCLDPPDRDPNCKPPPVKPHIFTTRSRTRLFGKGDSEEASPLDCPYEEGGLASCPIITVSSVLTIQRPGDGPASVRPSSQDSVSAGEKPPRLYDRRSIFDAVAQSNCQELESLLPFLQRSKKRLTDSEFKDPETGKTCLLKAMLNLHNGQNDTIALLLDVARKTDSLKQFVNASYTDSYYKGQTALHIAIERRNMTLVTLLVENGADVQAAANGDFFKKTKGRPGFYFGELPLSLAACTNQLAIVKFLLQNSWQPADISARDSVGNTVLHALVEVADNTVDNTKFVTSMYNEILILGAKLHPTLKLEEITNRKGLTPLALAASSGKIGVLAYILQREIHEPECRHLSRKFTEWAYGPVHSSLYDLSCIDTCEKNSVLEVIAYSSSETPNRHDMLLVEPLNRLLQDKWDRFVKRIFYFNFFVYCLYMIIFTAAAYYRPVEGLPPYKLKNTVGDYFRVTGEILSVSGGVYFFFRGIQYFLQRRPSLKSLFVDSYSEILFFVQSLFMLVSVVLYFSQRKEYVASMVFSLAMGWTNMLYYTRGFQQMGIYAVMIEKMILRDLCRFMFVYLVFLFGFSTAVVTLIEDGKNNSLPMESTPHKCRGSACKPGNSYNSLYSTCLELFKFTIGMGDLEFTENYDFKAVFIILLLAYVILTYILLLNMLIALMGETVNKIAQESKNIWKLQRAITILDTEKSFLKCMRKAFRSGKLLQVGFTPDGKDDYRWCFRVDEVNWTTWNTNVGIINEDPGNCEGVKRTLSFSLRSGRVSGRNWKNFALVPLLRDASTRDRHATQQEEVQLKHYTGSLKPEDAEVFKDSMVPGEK
T2 sequence (O75762 whole entry): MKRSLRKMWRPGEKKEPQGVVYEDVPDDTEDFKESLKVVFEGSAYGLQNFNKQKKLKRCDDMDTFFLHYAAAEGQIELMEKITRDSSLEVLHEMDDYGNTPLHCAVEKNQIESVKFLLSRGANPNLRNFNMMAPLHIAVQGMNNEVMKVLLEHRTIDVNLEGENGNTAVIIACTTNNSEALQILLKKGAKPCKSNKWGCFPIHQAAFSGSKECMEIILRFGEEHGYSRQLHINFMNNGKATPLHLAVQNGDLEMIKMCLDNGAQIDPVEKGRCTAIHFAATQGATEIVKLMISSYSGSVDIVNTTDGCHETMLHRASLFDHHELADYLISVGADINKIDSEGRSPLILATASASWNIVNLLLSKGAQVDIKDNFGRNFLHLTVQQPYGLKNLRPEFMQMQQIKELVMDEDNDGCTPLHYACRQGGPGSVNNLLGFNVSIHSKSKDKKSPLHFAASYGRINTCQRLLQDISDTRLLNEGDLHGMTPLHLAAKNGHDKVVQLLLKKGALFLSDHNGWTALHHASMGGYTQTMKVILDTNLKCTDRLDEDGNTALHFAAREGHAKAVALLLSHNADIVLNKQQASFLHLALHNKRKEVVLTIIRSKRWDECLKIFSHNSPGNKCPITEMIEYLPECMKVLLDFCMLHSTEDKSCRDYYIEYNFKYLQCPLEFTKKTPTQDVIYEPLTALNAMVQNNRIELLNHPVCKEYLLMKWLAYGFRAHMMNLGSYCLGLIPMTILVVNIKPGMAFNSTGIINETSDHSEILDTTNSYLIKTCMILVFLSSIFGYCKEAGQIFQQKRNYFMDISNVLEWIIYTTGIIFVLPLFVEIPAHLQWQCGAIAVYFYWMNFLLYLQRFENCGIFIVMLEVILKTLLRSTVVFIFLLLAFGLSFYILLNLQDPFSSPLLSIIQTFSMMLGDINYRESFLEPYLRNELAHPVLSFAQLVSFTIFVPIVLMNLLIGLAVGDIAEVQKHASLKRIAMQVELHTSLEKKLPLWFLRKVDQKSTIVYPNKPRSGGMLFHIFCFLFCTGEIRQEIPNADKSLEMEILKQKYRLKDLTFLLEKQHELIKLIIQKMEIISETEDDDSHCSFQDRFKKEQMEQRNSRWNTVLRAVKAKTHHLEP

SMILES: FC(F)OC(Cl)C(F)(F)F (stereo not drawn) [isoflurane]
- Activation of TRPA1 after AITC treatment (TRPA1 [1]): failed to activate
- Activation of TRPA1 currents by VGAs (TRPA1 [1]): produced inward currents; also recorded: robustly activated
- TRPA1 response at high concentration (TRPA1 [1]; 2.7 mM, additional blocking mechanism): reduced
- EC50 of TRPA1 activation expressed in MAC (TRPA1 [1]; HEK293 cells): 0.57 MAC
- Hill coefficient of TRPA1 activation (TRPA1 [1]; HEK293 cells): 1.6±0.2
- EC50 (TRPA1 [1]; HEK293 cells, read-out: EC50 of TRPA1 activation): 180 ± 20 µM
- Effect on TRPA1 when applied together with saturating octanol (TRPA1 [1]; isoflurane 0.9 mM + octanol 1.8 mM): negligible effects
- Activation of TRPA1 at holding potential −50 mV (TRPA1 [1]; isoflurane 0.9 mM, octanol 1 mM): selectively activated
- Concentration at peak of bimodal dose-response relationship (TRPA1 [1]; reduction at higher concentrations): ≈ 1 mM
- 1 MAC equivalent aqueous concentration (published conversion factor) [2]: 0.31 mM
- Effect on AITC-evoked currents (hTRPA1): markedly enhanced
- TRPA1 single-channel conductance in presence of VGA (TRPA1 [3]): ≈ 60 pS
- Single TRPA1 channel activity (TRPA1 [3]): enhanced single-channel gating; also recorded: activate single TRPA1 channels
- Temperature threshold of TRPV1 heat activation (TRPV1; 0.5 mM isoflurane): 43 °C
- Temperature threshold of TRPV1 heat activation (TRPV1; 0.9 mM isoflurane): 40 °C
- Enhancement of maximal proton-evoked current (TRPV1; isoflurane 0.9 mM): approximately 3 fold
- Temperature threshold of TRPV1 heat activation after PDBu application (TRPV1; isoflurane 0.9 mM after PDBu, control 45.9±0.2): 32.8±0.8 °C
- Enhancement of currents evoked by pH 5.5 solution (TRPV1; isoflurane 0.9 mM, n=4): approximately 10 fold
- Maximal proton response as % of 10 μM capsaicin (TRPV1; isoflurane 0.9 mM, control 14.3%): 32.2%

SMILES: FC(F)OC(F)C(F)(F)F (stereo not drawn) [desflurane]
- Activation of TRPA1 currents by VGAs (TRPA1 [1]): robustly activated
- 1 MAC equivalent aqueous concentration (published conversion factor) [2]: 0.51 mM
- Effect on AITC-evoked currents (hTRPA1): markedly enhanced
- TRPA1 single-channel conductance in presence of VGA (TRPA1 [3]): ≈ 80 pS
- Increase in maximal open probability of TRPA1 (TRPA1 [3]; cell-attached patches): > 6 fold
- V1/2 of TRPA1 open probability in presence of desflurane (TRPA1 [3]; cell-attached patches, shifted from 72.1 mV): 42.5 mV
- Single TRPA1 channel activity (TRPA1 [3]): enhanced single-channel gating; also recorded: activate single TRPA1 channels
- Enhancement of proton-evoked currents compared with isoflurane and sevoflurane (TRPV1; VGAs 0.6 mM, pH 5.5): significantly more
